Read-outs that look alike come from different tables or passages of the source.
Assays:
[1] = test system: caterpillars of the cotton bollworm (Heliothis armigera); assay: Heliothis armigera test; type: in vivo; settings: concentration of active compound 0.004%; after 6 days; dipped soybean shoots
Method: (§1) To produce a suitable preparation of active compound, 1 part by weight of active compound is mixed with the stated amounts of solvent and emulsifier, and the concentrate is diluted with emusifier-containing water to the desired concentration.
Soybean shoots (Glycine max) are treated by being dipped into the preparation of active compound of the desired concentration and are populated with caterpillars of the cotton bollworm (Heliothis armigera) while the leaves are still moist.
(§2) After the desired period of time, the kill in % is determined. 100% means that all caterpillars have been killed; 0% means that none of the caterpillars have been killed.

[2] = test system: larvae of the mustard beetle (Phaedon cochleariae); assay: Phaedon larvae test; type: in vivo; settings: dipped cabbage leaves
Method: Phaedon larvae test [table] To produce a suitable preparation of active compound, 1 part by weight of active compound is mixed with the stated amounts of solvent and emulsifier, and the concentrate is diluted with emusifier-containing water to the desired concentration. Cabbage leaves (Brassica oleracea) are treated by being dipped into the preparation of active compound of the desired concentration and are populated with larvae of the mustard beetle (Phaedon cochleariae) while the leaves are still moist.

[3] = test system: caterpillars of the diamond-back moth (Plutella xylostella); assay: Plutella test; type: in vivo; settings: concentration of active compound 0.004%; after 6 days; dipped cabbage leaves
Method: as §1
Cabbage leaves (Brassica oleracea) are treated by being dipped into the preparation of active compound of the desired concentration and are populated with caterpillars of the diamond-back moth (Plutella xylostella) while the leaves are still moist.
as §2

[4] = test system: caterpillars of the army-worm (Spodoptera frugiperda); assay: Spodoptera frugiperda test; type: in vivo; settings: dipped cabbage leaves
Method: Spodoptera frugiperda test
as §1
Cabbage leaves (Brassica oleracea) are treated by being dipped into the preparation of active compound of the desired concentration and are populated with caterpillars of the army-worm (Spodoptera frugiperda) while the leaves are still moist.
as §2

[5] = test system: all stages of the greenhouse red spider mite (Tetranychus urticae); assay: Tetranychus test (OP-resistant/dip treatment); type: in vivo; settings: after 7 days, dipped bean plants
Method: Tetranychus test (OP-resistant/dip treatment)
To produce a suitable preparation of active compound, 1 part by weight of active compound is mixed with the stated amounts of solvent and emulsifier, and the concentrate is diluted with emulsifier-containing water to the desired concentration.
Bean plants (Phaseolus vulgaris) which are heavily infested by all stages of the greenhouse red spider mite (Tetranychus urticae) are dipped into a preparation of the active compound of the desired concentration.
After the desired period of time, the action in % is determined. 100% means that all spider mites have been killed; 0% means that none of the spider mites have been killed.

HPLC log P determination = type: physicochemical; settings: alkane/water partition, estimated by HPLC retention
Method: * log P=[…] logarithm to base 10 of the alkane/water partition coefficient, determined by HPLC analysis using water/acetonitrile as mobile phase on 125×4.0 mm Kromasil […] (5 μm); flow rate: 1.5 ml/min.

[6] = concentration of active compound 0.004%, after 6 days
[7] = concentration of active compound 0.01%, after 7 days
[8] = pH 2.3, read-out: HPLC log P (pH 2.3)

With Cc1ccccc1C1=NC(c2ccc(-c3ccc(OC(F)(F)F)cc3)cc2)CC1 (stereo not drawn) [Example I-9] the kill in % [1] was 100%, the kill in % [2, 6] was 100% and the kill in % [3] was 100%. The kill in % [4, 6] was 100%, the “kill (action in %)” value ([5]; concentration of active compound 0.004%) was 98% and the chromatographic logP (HPLC log P determination; neutral, HPLC, water/acetonitrile mobile phase, read-out: HPLC log P (neutral)) was 6.05.

For Cc1ccccc1C1=NC(c2ccc(-c3ccc(OC(F)(F)C(F)F)cc3)cc2)CC1 (stereo not drawn) [Example I-43], the kill in % [2, 7] was 100%, the kill in % [4, 7] was 100% and the “kill (action in %)” value ([5]; concentration of active compound 0.01%) was 100%. The chromatographic logP (HPLC log P determination; [8]) was 3.02.

With Cc1ccccc1C(=O)CCC(NC(=O)OC(C)(C)C)c1ccc(-c2ccc(OC(F)(F)C(F)F)cc2)cc1 (stereo not drawn) [Example VIII-43] the chromatographic logP (HPLC log P determination; [8]) was 5.05.

In the case of O=C1CCC(c2ccc(-c3ccc(OC(F)(F)C(F)F)cc3)cc2)N1 (stereo not drawn) [Example XI-43], the chromatographic logP (HPLC log P determination; pH 2-3, read-out: HPLC log P (pH 2-3)) was 2.79.
